Assay results reported in patent publication US9580444B2, “Polycyclic pyrazolinone derivative and herbicide comprising same as effective component thereof” (priority 2013, dated 2017).

Legend:
Type in all cases: in vivo
corn [1] = assay: Test Example-3: phytotoxicity by a treatment before weeds are generated under upland field conditions; conditions: upland soil treatment before emergence, about 21 days after treatment, score 0-5
Source text: (§1) Using the formulation prepared according to the methods described above, the herbicidal effect of the bicyclic pyrazolinone derivative of the invention according to the methods shown in Test Examples below was examined. The herbicidal effect with respect to the test weeds or the phytotoxicity with respect to the test crops was examined according to the following criteria, and evaluated in six stage scores of 0 to 5. A vat having an area of 81 cm^2 and a depth of 3.5 cm was filled with upland soil, then, seeds of Ipomoea purpurea (tall morning glory), Amaranthus viridis (green amaranthus), Abutilon theophrasti (velvetleaf), Chenopodium album (common lambsquarters), and corn were seeded thereto, and the seeds were covered with soil of about 0.5 cm. Next day, a wettable powder or an emulsifiable concentrate of the compound of the present invention prepared according to Formulation Example was diluted, and a spray treatment was uniformly performed on the covered oil so as to be a predetermined dosage. The herbicidal effect with respect to the test weeds and the phytotoxicity with respect to corn about 21 days after the treatment were evaluated according to the evaluation criteria in six stages of 0 to 5 described above.

corn [2] = assay: Test Example-4: phytotoxicity by a foliage treatment after weeds are generated under upland field conditions; conditions: 500 g a.i/ha, foliage treatment after emergence, about 14 days after treatment, score 0-5
Method in brief: (§2)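 Upland soil; seeds covered ~0.5 cm, grown 14 d. Foliar spray of diluted WP or EC, predetermined dose, 4000 L water/ha. Herbicidal effect and corn phytotoxicity scored on a six-stage 0–5 scale ~14 d post-treatment.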

[3] = tested on: Amaranthus viridis (green amaranthus); assay: Test Example-5: herbicidal effect by a foliage treatment after weeds are generated under upland field conditions; conditions: foliage treatment after emergence, about 14 days after treatment, score 0-5
Source text: as §1, with “While watering was suitably performed on there, the seeds were grown for 14 days. A” for “Next day, a”, “foliage portion of the plant” for “covered oil”, “dosage in the amount of water of 4000 L per hectare.” for “dosage.”, “14” for “21”

[4] = tested on: Chenopodium album (common lambsquarters); assay: as above; conditions: foliage treatment after emergence, about 14 days after treatment, score 0-5
Source text: as §1, with “While watering was suitably performed on there, the seeds were grown for 14 days. A” for “Next day, a”, “foliage portion of the plant” for “covered oil”, “dosage in the amount of water of 4000 L per hectare.” for “dosage.”, “14” for “21”

[5] = tested on: Ipomoea purpurea (tall morning glory); assay: as above; conditions: foliage treatment after emergence, about 14 days after treatment, score 0-5
Source text: as §1, with “While watering was suitably performed on there, the seeds were grown for 14 days. A” for “Next day, a”, “foliage portion of the plant” for “covered oil”, “dosage in the amount of water of 4000 L per hectare.” for “dosage.”, “14” for “21”

[6] = tested on: Abutilon theophrasti (velvetleaf); assay: as above; conditions: foliage treatment after emergence, about 14 days after treatment, score 0-5
Source text: as §1, with “While watering was suitably performed on there, the seeds were grown for 14 days. A” for “Next day, a”, “foliage portion of the plant” for “covered oil”, “dosage in the amount of water of 4000 L per hectare.” for “dosage.”, “14” for “21”

[7] = tested on: Amaranthus viridis (green amaranthus); assay: Test Example-4: herbicidal effect by a foliage treatment after weeds are generated under upland field conditions; conditions: 500 g a.i/ha, foliage treatment after emergence, about 14 days after treatment, score 0-5
Method in brief: as §2

[8] = tested on: Chenopodium album (common lambsquarters); assay: as above; conditions: 500 g a.i/ha, foliage treatment after emergence, about 14 days after treatment, score 0-5
Method in brief: as §2

[9] = tested on: Abutilon theophrasti (velvetleaf); assay: as above; conditions: 500 g a.i/ha, foliage treatment after emergence, about 14 days after treatment, score 0-5
Method in brief: as §2

[10] = tested on: Amaranthus viridis (green amaranthus); assay: Test Example-3: herbicidal effect by a treatment before weeds are generated under upland field conditions; conditions: upland soil treatment before emergence, about 21 days after treatment, score 0-5
Source text: as §1

[11] = tested on: Chenopodium album (common lambsquarters); assay: as above; conditions: upland soil treatment before emergence, about 21 days after treatment, score 0-5
Source text: as §1

[12] = tested on: Ipomoea purpurea (tall morning glory); assay: as above; conditions: upland soil treatment before emergence, about 21 days after treatment, score 0-5
Source text: as §1

[13] = tested on: Abutilon theophrasti (velvetleaf); assay: as above; conditions: upland soil treatment before emergence, about 21 days after treatment, score 0-5
Source text: as §1

corn [14] = assay: Test Example-5: phytotoxicity by a foliage treatment after weeds are generated under upland field conditions; conditions: foliage treatment after emergence, about 14 days after treatment, score 0-5
Source text: as §1, with “While watering was suitably performed on there, the seeds were grown for 14 days. A” for “Next day, a”, “foliage portion of the plant” for “covered oil”, “dosage in the amount of water of 4000 L per hectare.” for “dosage.”, “14” for “21”

[15] = tested on: Scirpus juncoides (bulrush); assay: Test Example-1: herbicidal effect by a treatment before weeds are generated under submerged conditions; conditions: 500 g a.i/ha, pre-emergence treatment, about 15 days after treatment, score 0-5
Method in brief: (§3)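 Pre-emergence, submerged paddy soil; WP/EC formulation diluted, applied to floodwater at seeding day at predetermined dose; visual herbicidal score 0–5 at ~15 days after treatment.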

[16] = tested on: Monochoria vaginalis (monochoria); assay: as above; conditions: 500 g a.i/ha, pre-emergence treatment, about 15 days after treatment, score 0-5
Method in brief: as §3

[17] = tested on: Echinochloa oryzicola (barnyard grass); assay: as above; conditions: 500 g a.i/ha, pre-emergence treatment, about 15 days after treatment, score 0-5
Method in brief: as §3

[18] = tested on: other annual broad leaf weeds (Lindernia procumbens, Rotala indica, Elatine triandra); assay: as above; conditions: 500 g a.i/ha, pre-emergence treatment, about 15 days after treatment, score 0-5
Method in brief: as §3

[19] = tested on: Cyperus difformis (smallflower umbrella plant); assay: as above; conditions: 500 g a.i/ha, pre-emergence treatment, about 15 days after treatment, score 0-5
Method in brief: as §3

[20] = tested on: Eleocharis acicularis (needle spikerush); assay: as above; conditions: 500 g a.i/ha, pre-emergence treatment, about 15 days after treatment, score 0-5
Method in brief: as §3

corn [21] = assay: Test Example-2: phytotoxicity by a soil treatment before weeds are generated under upland field conditions; conditions: application amount 500 g a.i/ha, soil spray treatment before weeds are generated, about 21 days after the treatment, score 0 to 5
Method in brief: (§4)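 Pre-emergence soil treatment: seeds sown in upland soil and covered with about 0.5 cm soil were sprayed the next day with diluted wettable powder or emulsifiable concentrate at a predetermined dosage. Weed control and corn injury were scored on a 0–5 scale about 21 days after treatment.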

[22] = tested on: Amaranthus viridis (green amaranthus); assay: Test Example-2: herbicidal effect by a soil treatment before weeds are generated under upland field conditions; conditions: application amount 500 g a.i/ha, soil spray treatment before weeds are generated, about 21 days after the treatment, score 0 to 5
Method in brief: as §4

[23] = tested on: Chenopodium album (common lambsquarters); assay: as above; conditions: application amount 500 g a.i/ha, soil spray treatment before weeds are generated, about 21 days after the treatment, score 0 to 5
Method in brief: as §4

Row | Compound | Phytotoxicity Corn (corn [1]; 50 g a.i/ha) | Phytotoxicity Corn (corn [2]) | Herbicidal effect Amaranthus viridis ([3]; 12.5 g a.i/ha) | Herbicidal effect Chenopodium album ([4]; 12.5 g a.i/ha) | Herbicidal effect Ipomoea purpurea ([5]; 12.5 g a.i/ha) | Herbicidal effect Abutilon theophrasti ([6]; 12.5 g a.i/ha) | Herbicidal effect Amaranthus viridis [7] | Herbicidal effect Chenopodium album [8] | Herbicidal effect Abutilon theophrast [9] | Herbicidal effect Amaranthus viridis ([10]; 50 g a.i/ha) | Herbicidal effect Chenopodium album ([11]; 50 g a.i/ha) | Herbicidal effect Ipomoea purpurea ([12]; 50 g a.i/ha) | Herbicidal effect Abutilon theophrast ([13]; 50 g a.i/ha) | Phytotoxicity Corn (corn [14]; 12.5 g a.i/ha) | other results
1 | COC(=O)C=C(COc1cc(-c2c(Cl)n3n(c2=O)CCOCC3)c(F)cc1Cl)OC (mixture of isomers) [Example 2-3] | 0 (Herbicidal effect/phytotoxicity was 0% to 10%) | 1 (Herbicidal effect/phytotoxicity was 10% to 30%) | 5 (Herbicidal effect/phytotoxicity was 90% or greater) | 5 (Herbicidal effect/phytotoxicity was 90% or greater) | 5 (Herbicidal effect/phytotoxicity was 90% or greater) | 5 (Herbicidal effect/phytotoxicity was 90% or greater) | 5 (Herbicidal effect/phytotoxicity was 90% or greater) | 5 (Herbicidal effect/phytotoxicity was 90% or greater) | 5 (Herbicidal effect/phytotoxicity was 90% or greater) | 5 (Herbicidal effect/phytotoxicity was 90% or greater) | 4 (Herbicidal effect/phytotoxicity was 70% to 90%) | 2 (Herbicidal effect/phytotoxicity was 30% to 50%) | 5 (Herbicidal effect/phytotoxicity was 90% or greater) | 0 (Herbicidal effect/phytotoxicity was 0% to 10%) | –
2 | C#CCOc1cc(-c2c(Cl)n3n(c2=O)CCCC3)c(F)cc1Cl [Example 1-238] | 0 (Herbicidal effect/phytotoxicity was 0% to 10%) | 3 (Herbicidal effect/phytotoxicity was 50% to 70%) | 5 (Herbicidal effect/phytotoxicity was 90% or greater) | 5 (Herbicidal effect/phytotoxicity was 90% or greater) | 5 (Herbicidal effect/phytotoxicity was 90% or greater) | 5 (Herbicidal effect/phytotoxicity was 90% or greater) | 5 (Herbicidal effect/phytotoxicity was 90% or greater) | 5 (Herbicidal effect/phytotoxicity was 90% or greater) | 5 (Herbicidal effect/phytotoxicity was 90% or greater) | 4 (Herbicidal effect/phytotoxicity was 70% to 90%) | 5 (Herbicidal effect/phytotoxicity was 90% or greater) | 5 (Herbicidal effect/phytotoxicity was 90% or greater) | 5 (Herbicidal effect/phytotoxicity was 90% or greater) | 0 (Herbicidal effect/phytotoxicity was 0% to 10%) | Phytotoxicity Corn (corn [1]; 100 g a.i/ha): 0 (Herbicidal effect/phytotoxicity was 0% to 10%); Herbicidal effect Amaranthus viridis ([3]; 25 g a.i/ha): 5 (Herbicidal effect/phytotoxicity was 90% or greater); Herbicidal effect Chenopodium album ([4]; 25 g a.i/ha): 5 (Herbicidal effect/phytotoxicity was 90% or greater); Herbicidal effect Ipomoea purpurea ([5]; 25 g a.i/ha): 5 (Herbicidal effect/phytotoxicity was 90% or greater); Herbicidal effect Abutilon theophrasti ([6]; 25 g a.i/ha): 5 (Herbicidal effect/phytotoxicity was 90% or greater); Herbicidal effect Scirpus juncoides [15]: 5 (Herbicidal effect/phytotoxicity was 90% or greater); Herbicidal effect Monochoria vaginalis [16]: 5 (Herbicidal effect/phytotoxicity was 90% or greater); Herbicidal effect Echinochloa oryzicola [17]: 5 (Herbicidal effect/phytotoxicity was 90% or greater); Herbicidal effect Broadleaf weed [18]: 5 (Herbicidal effect/phytotoxicity was 90% or greater); Herbicidal effect Cyperus difformis [19]: 5 (Herbicidal effect/phytotoxicity was 90% or greater); Herbicidal effect Eleocharis acicularis [20]: 5 (Herbicidal effect/phytotoxicity was 90% or greater); Herbicidal effect Amaranthus viridis ([10]; 100 g a.i/ha): 5 (Herbicidal effect/phytotoxicity was 90% or greater); Herbicidal effect Chenopodium album ([11]; 100 g a.i/ha): 5 (Herbicidal effect/phytotoxicity was 90% or greater); Herbicidal effect Ipomoea purpurea ([12]; 100 g a.i/ha): 5 (Herbicidal effect/phytotoxicity was 90% or greater); Herbicidal effect Abutilon theophrast ([13]; 100 g a.i/ha): 5 (Herbicidal effect/phytotoxicity was 90% or greater); Phytotoxicity Corn (corn [21]): 1 (Herbicidal effect/phytotoxicity was 10% to 30%); Herbicidal effect Amaranthus viridis [22]: 5 (Herbicidal effect/phytotoxicity was 90% or greater); Herbicidal effect Chenopodium album [23]: 5 (Herbicidal effect/phytotoxicity was 90% or greater); Phytotoxicity Corn (corn [14]; 25 g a.i/ha): 0 (Herbicidal effect/phytotoxicity was 0% to 10%)
